Reference: patent publication US6987101B1, “Therapeutic gestagens for the treatment of premenstrual dysphoric disorder” (Schering Aktiengesellschaft, priority 1996, dated 2006)

Tested on: premenstrual dysphoric disorder (PMDD) symptoms
Assay: Oral treatment of women classified as PMDD patients over 4 to 6 cycles, re-evaluation of symptom criteria 1 to 11
Format: in vivo, fertile women
Conditions: 3 mg drospirenone together with 30 μg ethinylestradiol orally daily, day 1 to day 21 of the cycle, then 7 pill-free or placebo days; evaluated after 4 to 6 cycles; all of the women treated
From the text: In the prospective evaluation by recording the symptoms of the patient over 2 or 3 menstrual cycles, 5 (or more) of the symptoms that are listed below occur during the last week of the luteal phase, but no longer occur postmenstrually. At least one of the symptoms must be the first, second, third or fourth symptom below. • 1. Noticeably stressed mental state, feelings of hopelessness or self-doubt • 2. Noticeable feeling of anxiety, tension, feeling of “being on the edge” • 3. Noticeable emotional tendencies (e.g., suddenly feeling sad or fretful or increased sensitivity to rejection) • 4. Lasting and noticeable feelings of unease or irritability or increased interpersonal conflicts • 5. Decreasing interest in conventional activities (e.g., work, school, friends, hobbies) • 6. Subjective sensation of concentration difficulties • 7. Lethargy, slight exhaustion or noticeable lack of energy • 8. Noticeable change in appetite, overeating or special food cravings • 9. […]
Fertile women, who were classified according to the above-indicated criteria 1. to 11. as PMDD patients, are treated orally over at least 4 cycles, in each case from day 1 to day 21 of the cycle daily, with an amount of 3 mg of drospirenone together with 30 μg of ethinylestradiol. […] After a treatment over 4 to 6 cycles, the symptoms that fall into the category criteria 1. to 11. are carefully evaluated again.

## C[C@]12CCC(=O)C=C1[C@@H]1C[C@@H]1[C@H]1[C@@H]3[C@@H]4C[C@@H]4[C@@]4(CCC(=O)O4)[C@@]3(C)CC[C@@H]12 [drospirenone]
  improvement relative to at least one of the PMDD symptoms that occurred before the beginning of the treatment (not only the 11th symptom): significant improvement
